Measured values reported in patent US8252807B2, “Methods of inhibiting the interaction between S100 and the receptor for advanced glycation end-products” (Board of Regents, The University of Texas System, priority 2007, dated 2012).

Tests used:
BxPC-3 cells = experiment: Matrigel invasion assay, BxPC-3; assay type: cell-based; settings: 24 hours; for BxPC-3 cells invaded, mean: 0 μM mean=19.3%
Method: FIGS. 2A-2D show the effect of cromolyn on pancreatic cancer cell invasion. Panc-1 and BxPC-3 cells were plated in Bio-coat matrigel and control chambers and cultured in serum-free culture media. After 24 hours non-invaded cells in the upper chamber were removed, and cells that invaded onto the lower surface of the membrane were counted from five adjacent fields. […] Data are expressed as the percent invasion through the matrigel matrix and membrane relative to migration through the control membrane. Means and 95% confidence intervals from three independent experiments performed in triplicate are shown. Two-tailed two-sample (unpaired) Student's t-tests were used to determine P values. Panc-1 and BxPC-3 cells were seeded in BIOCOAT matrigel invasion chambers and in control chambers without matrigel (Becton-Dickinson, Bedford, Mass.) according to the manufacturer's protocol. Panc-1 cells were seeded with S100P (100 nM) with or without cromolyn (100 μM), and BxPC-3 cells were seeded with or without cromolyn (1-100 μM). Briefly, 2.0×10^5 cells in 300 μL top solution (serum-free media) were added to each chamber and allowed to invade matrigel for 24 hours at 37° C. in a 5% CO2 atmosphere. The non-invading cells on the upper surface of membrane were removed from the chambers with a cotton swab, and the invading cells on the lower surface of the membrane were fixed and stained using a Diff-Quick stain kit (Becton Dickinson, Bedford, Mass.). After two washes with water, the chambers were allowed to air dry. The numbers of invading cells in five adjacent microscope fields per membrane were counted at 20× magnification to obtain the average number of cells per field. Data are expressed as the percent invasion through the matrigel matrix and membrane relative to the migration through the control membrane. The assays were performed three times.

[1] = test system: NFκB activity of BxPC-3 cells transplanted orthotopically; experiment: NFκB promoter activity in vivo, orthotopic BxPC-3 tumors; design: species or system mice
Method: FIGS. 3A, 3B, and 3C show the effect of cromolyn on S100P stimulated NFκB promoter activity in pancreatic cancer cells in vitro and in vivo. Panc-1 and BxPC-3 pancreatic cancer cell lines stably expressing an NFκB luciferase reporter were examined for the effects of S100P and cromolyn. […] Means and 95% confidence intervals are shown for three independent experiments performed in triplicate. *, P=0.022, †, P<0.001, and ‡, P<0.001 versus control; #, P=0.005 versus 100 nM S100P alone. […] Means and 95% confidence intervals are shown for three independent experiments performed in triplicate. *, P=0.003, †, P<0.001 versus control. […] After 1 week, tumor growth was assessed and NFκB activity was analyzed using an IVIS system (Xenogen Corp., Alameda, Calif.) after injecting mice with D-luciferin (150 mg per kg body weight) (0 time point). The mice were treated with cromolyn (5 mg per kg body weight by intraperitoneal injection), and NFκB luciferase activity was analyzed again at 24 and 48 hours. *, P=0.005 versus control. Means and 95% confidence intervals are shown for two independent experiments (n=4 mice per group). Two-tailed two-sample (unpaired for in vitro and paired for in vivo studies) Student's t-tests were used to determine P values.
To measure NFκB promoter activity in vivo, BxPC-3 cells (50,000/50 μL) stably expressing a Lenti-NFkB-luc reporter were transplanted orthotopically into the pancreas of 4-week-old male CB 17 scid mice (n=4 mice per experiment). After 1 week mice were injected with D-luciferin (150 mg per kg body weight, i.p.), and basal NFκB activity was determined using the IVIS system. Subsequently, mice were injected with cromolyn (5 mg per kg body weight, i.p.), and NFκB luciferase activity was re-analyzed after 24 and 48 hours. These experiments were performed three times.

SKOV3 ovarian cells = experiment: SKOV3 ovarian cell viability with taxol; assay type: cell-based; settings: taxol 5 μM, cromolyn 10 μM, 48 hours
Method: SKOV3 ovarian cells were plated and treated with taxol (5 μM) either in the presence or absence of cromolyn (10 μM) for 48 hours. Cell viability was analyzed after 48 hours. *, P<0.05.

PC3 prostate cells = experiment: PC3 prostate cell proliferation; assay type: cell-based; settings: 24, 48 and 72 hours
Method: PC3 prostate cells were cultured for up to three days in the presence of different concentrations of cromolyn, and cell proliferation was analyzed at 24, 48, and 72 hours. *, P<0.05.

SW480 cells = experiment: SW480 colon cancer cell invasion (matrigel transwell); assay type: cell-based; settings: cromolyn 10 μM and 100 μM, 24 hours
Method: SW480 cells were plated on top of a layer of matrigel in a Boyden type chamber (transwell). Media containing 5% FBS was placed in the lower well and the cells were allowed to invade the matrigel layer for 24 hours in the presence of different concentrations of cromolyn.

SW480 colon cells = experiment: SW480 colon cell proliferation; assay type: cell-based; settings: cromolyn 100 μM, up to three days
Method: SW480 colon cells were cultured for up to three days in the presence of cromolyn (100 μM), and cell proliferation was analyzed. *, P<0.05.

[2] = test system: S100s A1, B, A12, and A13; settings: previously found; cited from earlier work

SMILES: O=C(O)c1cc(=O)c2c(OCC(O)COc3cccc4oc(C(=O)O)cc(=O)c34)cccc2o1 [cromolyn, disodium 1,3-bis[(2′-carboxylatochromon-5′-yl)oxy]-2-hydroxypropane]
- BxPC-3 cells invaded, difference versus 0 μM (BxPC-3 cells; cromolyn 10 μM): 10.0%
- BxPC-3 cells invaded, mean (BxPC-3 cells; cromolyn 10 μM): 9.3%
- BxPC-3 cells invaded, difference versus 0 μM (BxPC-3 cells; cromolyn 100 μM): 11.7%
- BxPC-3 cells invaded, mean (BxPC-3 cells; cromolyn 100 μM): 7.7%
- NFκB luciferase activity in vivo, mean ([1]; 24 h after single dose 5 mg per kg i.p., 0 h mean=9.9×10^6): 1.3×10^6 photons/sec
- reduction of basal NFκB activity in vivo ([1]; 24 hours after single dose 5 mg per kg i.p.): at least 80%
- NFκB activity in vivo at 48 hours ([1]; 48 hours after single dose 5 mg per kg i.p.): returned to control levels
- NFκB luciferase activity in vivo, difference 0 h versus 24 h ([1]; single dose 5 mg per kg i.p.): 8.6×10^6 photons/sec
- cell killing effect of taxol on ovarian cancer cells (SKOV3 ovarian cells): increased the cell killing effect of taxol
- growth of PC3 cells (PC3 prostate cells): reduced growth
- invasiveness of SW480 cells (SW480 cells): reduced the invasiveness
- growth of SW480 cells (SW480 colon cells): reduced growth
- binding to S100 proteins [2]: bind
